Structures can show the parent of a compound that is named as a salt.
Columns and labels:
[1] = biological target: HUMAN D3 DOPAMINERGIC RECEPTOR (Homo sapiens, UniProt P35462); experiment: biochemical; settings: read-out: Ki VALUE (inhibition constant for binding of [^125 I]iodosulpiride)
Method: The inhibition constants for the binding of [^125 I]iodosulpiride to the D3 receptor were measured as described in the French Patent Application filed by INSERM on 6th Nov. 1990 under No. 90/13731.

dopamine receptors [2] = experiment: Antagonism of apomorphine-induced rearing in mice (dopamine receptor blockade in vivo); settings: i.p.
Method: (§1) The capacity to bring about a blockade of the dopamine receptors in vivo was evaluated for some of the compounds according to the invention. The tests used were the antagonism of stereotyped sniffing and rearing induced by apomorphine in mice. These tests have been described by Protais et al. (Psychopharmacology, 1976, 50:1-6) and by Vasse et al. (Naunyn Schmiedeberg's Arch. Pharmacol., 1985, 329:108-116).

dopamine receptors [3] = experiment: Antagonism of apomorphine-induced stereotyped sniffing in mice (dopamine receptor blockade in vivo); settings: Mus musculus, ip, read-out: ID50 for the antagonism of sniffing
Method: as §1

Sequence of UniProt P35462 (P35462 whole entry): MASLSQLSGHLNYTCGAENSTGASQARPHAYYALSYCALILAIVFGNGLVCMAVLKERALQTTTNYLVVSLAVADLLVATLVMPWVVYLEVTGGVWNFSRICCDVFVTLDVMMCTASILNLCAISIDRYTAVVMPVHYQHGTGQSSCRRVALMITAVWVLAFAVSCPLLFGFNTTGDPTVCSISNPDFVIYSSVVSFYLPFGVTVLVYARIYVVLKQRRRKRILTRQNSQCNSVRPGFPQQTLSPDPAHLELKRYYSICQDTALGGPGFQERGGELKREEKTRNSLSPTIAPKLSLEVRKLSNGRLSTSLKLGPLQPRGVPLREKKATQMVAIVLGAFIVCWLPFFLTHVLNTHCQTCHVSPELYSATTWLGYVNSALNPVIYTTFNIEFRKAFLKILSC

Structure (SMILES) | Ki [1] | other results
C=CCN1CCCC1CNC(=O)c1cc(C#N)c2ccccc2c1OC (stereo not drawn) [Example 2, N-[(N-allyl-2-pyrrolidinyl)methyl]-1-methoxy-4-cyano-2-naphthamide] | 510 pM | 
CCN1CCCC1CNC(=O)c1cc(Cl)c2ccccc2c1OC (stereo not drawn) [Example 8, 4-Chloro-N-[(N-ethyl-2-pyrrolidinyl)methyl]-1-methoxy-2-naphthamide hydrochloride] | 260 pM | ED50 (dopamine receptors [2]; Mus musculus, ip, apomorphine-induced rearing, read-out: ID50 for the antagonism of rearing): 0.16 mg/kg; crossing of the blood-brain barrier (dopamine receptors [2]; inferred from ID50 values for rearing and sniffing): readily crosses the blood-brain barrier; ED50 (dopamine receptors [3]): 0.42 mg/kg
CCN1CCCC1CNC(=O)c1ccc2ccccc2c1OC (stereo not drawn) [Example 4, N-[(N-Ethyl-2-pyrrolidinyl)methyl]-1-methoxy-2-naphthamide] | 35000 pM | 
C=CCN1CCCC1CNC(=O)c1cc([N+](=O)[O-])c2ccccc2c1OC (stereo not drawn) [Example 17] | 350 pM | 
COc1c(C(=O)NCC2CCCN2Cc2ccccc2)cc(Cl)c2ccccc12 (stereo not drawn) [Example 13, 4-Chloro-N-[(N-benzyl-2-pyrrolidinyl)methyl]-1-methoxy-2-naphthamide] | 4700 pM | 
CCCCN1CCCC1CNC(=O)c1cc(Br)c2ccccc2c1OC (stereo not drawn) [Example 1, N-[(N-1-butyl-2-pyrrolidinyl)methyl]-1-methoxy-4-bromo-2-naphthamide hydrochloride] | 240 pM | 
CCN1CCCC1CNC(=O)c1cc([N+](=O)[O-])c2ccccc2c1OC (stereo not drawn) [Example 6, 4-Nitro-N-[(N-ethyl-2-pyrrolidinyl)methyl]-1-methoxy-2-naphthamide] | 300 pM | 
COc1c(C(=O)NCC2CCCN2Cc2ccccc2)ccc2ccccc12 (stereo not drawn) [Example 11, N-[(N-Benzyl-2-pyrrolidinyl)methyl]-1-methoxy-2-naphthamide hydrochloride] | 91000 pM | 
COc1c(C(=O)NCC2CCCN2Cc2ccccc2)cc([N+](=O)[O-])c2ccccc12 (stereo not drawn) [Example 12, 4-Nitro-N-[(N-benzyl-2-pyrrolidinyl)methyl]-1-methoxy-2-naphthamide] | 1700 pM | 

From patent publication US5498628A, “Naphthamide derivatives” (Institut National de la Sante et de la Recherche Medicale, priority 1991, dated 1996)
